# Results taken from patent US20230192748A1 (DoubleRainbow Biosciences Inc., priority 2020, published 2023).
# Key:
# [1] = cited from earlier work
# [2] = tested on: blood plasma proteins (primarily albumin); conditions: cited from earlier work
# [3] = in vivo; cited from earlier work
# [4] = aqueous solutions, 80° C., pH 5; cited from earlier work
# [5] = physchem; conditions: distilled water, 25 °C, thermodynamic from solid
# Protocol: (§1) Afterwards, each sample was centrifuged at 12,000×g for 20 min. The supernatant of each sample was then filtered through a 0.45-μm membrane filter and the concentration of the compound in the supernatant, which is defined as the water-soluble component, was measured by its absorbance at 254 nm using HPLC, and its absolute solubility was calculated in reference to the concentration-absorbance standard curve.
# [6] = distilled water, 25° C.
# Protocol: as §1
# [7] = etoposide phosphate plus cisplatin; cited from earlier work
# [8] = tested on: etoposide-resistant cell line; conditions: cited from earlier work
compound,measurement,setting,value
"COc1cc([C@@H]2c3cc4c(cc3[C@@H](O[C@@H]3O[C@@H]5CO[C@@H](C)O[C@H]5[C@H](O)[C@H]3O)[C@H]3COC(=O)[C@H]23)OCO4)cc(OC)c1O [etoposide, Etoposide]",solubility in aqueous solutions,[1]; 37° C.,150 to 170 µg/mL
same,bound to blood plasma proteins,[2],97%
same,half-life,[3],4 to 11 h
same,half life,[4],38.6 min
same,solubility at 12 h,[5],56 µg/mL
COc1cc(C2c3cc4c(cc3C(OC3OC5COC(C)OC5C(OC5OC(CO)C(O)C(O)C5O)C3O)C3COC(=O)C23)OCO4)cc(OC)c1O (stereo not drawn),water solubility relative to etoposide,[6],200 times
COc1cc([C@@H]2c3cc4c(cc3[C@@H](O[C@@H]3O[C@@H]5CO[C@@H](C)O[C@H]5[C@H](O)[C@H]3O)[C@H]3COC(=O)[C@H]23)OCO4)cc(OC)c1OP(=O)(O)O [Etoposide phosphate],aqueous solubility,[1],20 mg/mL
same,difference in PK/PD parameters or overall response rate versus etoposide plus cisplatin,[7],no statistically significant difference
COc1cc([C@@H]2c3cc4c(cc3[C@@H](O[C@@H]3O[C@@H]5CO[C@@H](C)O[C@H]5[C@H](O)[C@H]3O)[C@H]3COC(=O)[C@H]23)OCO4)cc(OC)c1OC(=O)OCC1COC(C)(C)O1 (stereo partly drawn) [CAP7.1],concentrations cytotoxic to an etoposide-resistant cell line,[8],nanomolar concentrations
